2 compounds from patent US20260216214A1, “ANALGESIC COMPOSITIONS, METHOD OF MANUFACTURE AND USES THEREOF” (University of Connecticut, priority 2022, published 2026) can be followed below.

In assay [1] the test system is LPS activated macrophages. In words: Cytokine gene expression by RT-PCR in LPS activated bone marrow macrophages. It is filed as cell-based. As to conditions: PEA 50 μM in DMSO, LPS 200 ng/ml, 24 hours; versus LPS alone. As for the experimental part:
Bone marrow macrophages were cultured for 24 hours, followed by treatment with lipopolysaccharides (LPS) from Escherichia coli O111:B4 (to activate macrophages) and the endocannabinoid molecule, dissolved in dimethyl sulfoxide (DMSO). After 24 hours of treatment, the cells are lysed, and the RNA collected. Gene expression is determined using RT-PCR. The expression of inflammatory cytokines such as Tumor Necrosis Factor Alpha (TNF-α), Interleukin-1-Beta […] and Interleukin-6 are used to determine the anti-inflammatory effect of the endocannabinoid solution. For example, macrophages were cultured for 24 hours and treated with LPS (200 ng/ml) and PEA (50 μM). After 24 hours, cells were lysed, and the RNA collected.
Bone marrow macrophages are cultured for 24 hours, followed by treatment with lipopolysaccharides (to activate macrophages) and the endocannabinoid dissolved in DMSO or endocannabinoid nanoparticle formulation at the same concentration. 24 hours after treatment, the cells were lysed, and the RNA collected. Gene expression is determined using RT-PCR. The expression of inflammatory cytokines such as Tumor Necrosis Factor Alpha (TNF-α), and Interleukin-1-Beta (IL1β) is used to determine the anti-inflammatory effect of the endocannabinoid solution.

The next assay relates to MIA induced OA rats. In words: Paw withdrawal threshold with Von Frey filaments in MIA induced OA rats (Examples 1-2). It is filed as in vivo, rat. An excerpt: Von Frey data typically refers to experimental data collected using the von Frey filaments or hairs, which are instruments commonly used in neuroscience and behavioral research to assess mechanical sensitivity or tactile allodynia (an increased sensitivity to touch, often associated with pain or discomfort) in animals, particularly rodents. The von Frey test involves applying calibrated filaments of varying forces to the skin of an animal, usually the hind paw of a rodent. The animal's response is overserved to determine its sensitivity to mechanical stimuli. The data collected during von Frey testing may include a) Threshold Response: The force or bending pressure at which the animal first responds to the filament. This is often referred to as the “withdrawal threshold” and is an indicator of the animal's sensitivity to touch; b) Response Frequency: The number of positive responses (e.g., paw withdrawal, licking, or shaking) to the application of the von Frey filaments. This information provides a measure of the intensity or frequency of the animal's response to the mechanical stimulus; and c) Response Latency: The time it takes for the animal to respond after the application of the von Frey filament. A shorter response latency may indicate increased sensitivity.
The injections were 50 μL each and the Bupivacaine HCL (1.5 mg/mL) was dissolved in 0.9% saline. […] FIG. 1 depicts the locations in the knee where the periarticular injections of only bupivacaine were administered.
Periarticular injections of local anesthetics into these specific locations can prolong the duration of analgesia compared to intra-articular injections into the knee joint. […]
FIG. 3 is a graph that depicts the change from the baseline pre-injury values of the animals versus time in days. […] FIG. 3 depicts the paw withdrawal threshold as measured using Von Frey filaments. in MIA induced OA rats.

Assay [2] concerns female Sprague Dawley Rats injected with mono-iodoacetate to induce OA. In words: Joint diameter (vernier caliper) as measure of joint inflammation in MIA induced OA rats. It is filed as in vivo, rat. As to conditions: periarticular, bupivacaine HCl 1.5 mg/ml, 50 μL/location. The procedure:
This example was conducted to determine in-vivo inflammation. […] The joint inflammation is assessed via vernier caliper measurements. For example, female Sprague Dawley Rats were injected with 30 μL of mono-iodoacetate solution to induce OA. […] The injections were done under X-ray guidance using a C-arm for increased precision. Inflammation was assessed using a vernier caliper at the knee joint. […] Vernier caliper measurements show reduced inflammation in the bupivacaine+PEA nanoparticles group compared to the bupivacaine HCL only group at day 3 and day 7. At day 7, the inflammation in the bupivacaine+PEA nanoparticles group is not different from the baseline. At day 3, the inflammation in the bupivacaine HCl only group is higher than the MIA group. Statistical tests were conducted using only one way ANOVA with Brown Forsythe and Welsh tests.
FIG. 9 is a graph depicting joint diameter upto 21 days. […] The treatment groups are high does of bupivacaine HCl at 1 location (N=4), periarticular PEA nanoparticles at 2 locations +high does bupivacaine HCL at 1 location (N=5) with control of MIA (3 mg; N=6). The treatment groups with PEA nanoparticles show anti-inflammatory effects for 3 weeks. Statistical tests were conducted using only one way ANOVA with Brown Forsythe and Welsh tests.

Assay [3] has the same test system. In words: Paw withdrawal threshold with Electronic Von Frey in MIA induced OA rats (Examples 8-9). It is filed as in vivo, rat. The procedure:
This example was conducted to determine in-vivo pain response. […] Pain response was assessed using Von Frey filaments that measure mechanical allodynia. Paw withdrawal threshold was measured using Electronic Von Frey [IITC]. For example, female Sprague Dawley Rats were injected with 30 μL of mono-iodoacetate solution to induce OA. […] The results were compared to rodents with 2 injections of bupivacaine HCl in 0.9% saline (1.5 mg/ml) in those specific periarticular locations. […] FIG. 10 depicts electronic Von Frey measurements done with treatment groups using bupivacaine HCL periarticularly injected at 2 locations alone and periarticular injection of PEA nanoparticles with bupivacaine HCL at 2 locations.
This example was conducted to determine the effect of increasing the dosage of the local anesthetic as commonly 5 mg/mL bupivacaine is used clinically. […] For example, female Sprague Dawley Rats were injected with 30 μL of mono-iodoacetate solution (MIA) to induce OA.
Pain response was measured using Von Frey measurements. […] The PEA nanoparticles with high dose of bupivacaine HCL extended pain relief more than 4 weeks compared to a few hours in the high dose bupivacaine HCL alone group. […]

Entries after “also recorded” stand apart in the source; their conditions may differ. Where a name gives a salt, the structure may show the parent alone.

As to `CCCCCCCCCCCCCCCC(=O)NCCO` [PEA, palmitoylethanolamide], in assay [1], the “gene expression of IL6” value is on record as “significantly less than in the LPS alone control group”, the “gene expression of ILβ” value is “significantly less than in the LPS alone control group” and the “gene expression of TNF-α” value was “significantly less than in the LPS alone control group”.
Regarding `CCCCN1CCCCC1C(=O)Nc1c(C)cccc1C` (stereo not drawn) [bupivacaine HCL, bupivacaine HCl], the “duration of efficacy (analgesia)” value is given as 3 days with MIA induced OA rats (intraarticular injection of same amount of bupivacaine HCL) and 17 days with MIA induced OA rats (periarticular injection at 4 locations, 50 μL each, 1.5 mg/mL in 0.9% saline). The “pain relief versus disease control (paw withdrawal threshold, change from baseline)” value in the assay on MIA induced OA rats (periarticular injections at 1, 2 or 4 locations) is “prolonged pain relief compared to the disease control”. The “joint diameter at day 3” value in assay [2] was “significantly increased joint diameter or inflammation compared to the injection of MIA alone”. Also, the “duration of pain relief” value in assay [3] (bupivacaine 3 mg/ml, 50 μL at one location (superior lateral)) is “a few hours”. For the same compound, the “hypoalgesic and analgesic efficacy on increasing the bupivacaine dose” value in assay [3] (bupivacaine increased from 1.5mg/ml to 3 mg/mL (0.15% to 0.3%), HCl) is “significant reduction in the hypoalgesic and analgesic effect; also recorded: significantly reduced the efficacy”.
